# Experiments:
# [1] = molecular target: T1, Avi-KRAS WT (1-169) GppNHp/RAF1 RBD-3xFLAG (52-151) (Homo sapiens, UniProt P01116); assay: Raf1-KRAS WT-GppNHP disruption HTRF assay (Biological Example 1); type: binding
# T1 construct: Avi-KRAS WT (1-169)
# In short: (§1)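 Percent activity versus DMSO (100%) was derived from HTRF signal after KRAS–RAF1 RBD protein mix was incubated 1 h at room temperature with shaking and detection reagents were added for a further 1 h.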
# SW620 cells (KRAS G12V) = assay: Cell-based pERK HTRF assay in SW620 cell (Biological Example 4); settings: pERK HTRF
# In short: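 Read-out: HTRF pERK signal (excitation 320 nm, emission 615 nm) from lysates of SW620 cells after 4 h compound exposure. Dose range was 9 points, half-log steps from 1 μM, in 0.25% DMSO; antibody incubation ran 4–24 h at room temperature.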
# [2] = molecular target: T2, Avi-KRAS G12R (1-169) GppNHp/RAF1 RBD-3xFLAG (52-151) (Homo sapiens, UniProt P01116, G12R); assay: Raf1-KRAS G12R-GppNHP disruption HTRF assay (Biological Example 1); type: binding
# T2 construct: Avi-KRAS G12R (1-169)
# In short: as §1
# GP2d cells (KRAS G12D) = assay: Cell-based pERK HTRF assay in GP2d cell (Biological Example 2); settings: GP2d (KRAS G12D) cells, pERK HTRF
# In short: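 Treatment with test compounds lasted one hour in DMEM containing 10% FBS, with DMSO held at 0.25%. Dilution series: 9 points, half-log spacing, highest 1 μM or 100 nM. Lysates were incubated 4–24 h at room temperature with antibody mix, then HTRF was read at 320 nm excitation.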
# [3] = molecular target: T3, Avi-KRAS G12D (1-169) GppNHp/RAF1 RBD-3xFLAG (52-151) (Homo sapiens, UniProt P01116, G12D); assay: Raf1-KRAS G12D-GppNHP disruption HTRF assay (Biological Example 1); type: binding
# T3 construct: Avi-KRAS G12D (1-169)
# In short: as §1
# [4] = molecular target: T4, Avi-KRAS G12V (1-169) GppNHp/RAF1 RBD-3xFLAG (52-151) (Homo sapiens, UniProt P01116, G12V); assay: Raf1-KRAS G12V-GppNHP disruption HTRF assay (Biological Example 1); type: binding
# T4 construct: Avi-KRAS G12V (1-169)
# In short: as §1
# [5] = KRAS WT, GppNHp-loaded, Table 11
# [6] = Homo sapiens, SW-620, SW620 (KRAS G12V) cells
# [7] = KRAS G12R, GppNHp-loaded, Table 11
# [8] = KRAS G12D, GppNHp-loaded, Table 11
# [9] = KRAS G12V, GppNHp-loaded, Table 11
# [10] = KRAS WT, GppNHp-loaded, class symbols
# [11] = Homo sapiens, SW-620, SW620 (KRAS G12V) cells, class symbols
# [12] = KRAS G12R, GppNHp-loaded, class symbols
# [13] = KRAS G12D, GppNHp-loaded, class symbols
# [14] = KRAS G12V, GppNHp-loaded, class symbols
# T3 sequence (P01116 1-169 isoform P01116-2 G12D): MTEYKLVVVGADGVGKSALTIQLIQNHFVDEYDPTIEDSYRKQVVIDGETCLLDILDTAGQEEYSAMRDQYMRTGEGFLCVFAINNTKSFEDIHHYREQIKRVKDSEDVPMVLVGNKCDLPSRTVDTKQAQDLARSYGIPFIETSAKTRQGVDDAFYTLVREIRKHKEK
# T2 sequence (P01116 1-169 isoform P01116-2 G12R): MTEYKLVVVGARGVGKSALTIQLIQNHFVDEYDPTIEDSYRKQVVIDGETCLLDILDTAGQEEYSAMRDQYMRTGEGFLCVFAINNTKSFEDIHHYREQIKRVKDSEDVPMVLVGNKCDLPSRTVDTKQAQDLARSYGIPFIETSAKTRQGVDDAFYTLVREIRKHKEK
# T4 sequence (P01116 1-169 isoform P01116-2 G12V): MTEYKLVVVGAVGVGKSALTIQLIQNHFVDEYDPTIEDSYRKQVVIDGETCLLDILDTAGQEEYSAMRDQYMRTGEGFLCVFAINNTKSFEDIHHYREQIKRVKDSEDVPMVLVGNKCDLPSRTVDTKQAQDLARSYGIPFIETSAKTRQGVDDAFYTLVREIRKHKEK
# T1 sequence (P01116 1-169 isoform P01116-2): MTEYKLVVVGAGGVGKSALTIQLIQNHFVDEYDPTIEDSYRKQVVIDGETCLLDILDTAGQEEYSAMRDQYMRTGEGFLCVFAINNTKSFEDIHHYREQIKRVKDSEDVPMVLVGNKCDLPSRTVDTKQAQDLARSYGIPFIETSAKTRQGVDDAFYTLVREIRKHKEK
IC50 (SW620 cells (KRAS G12V); [6]) [µM],IC50 (GP2d cells (KRAS G12D); GP2d) [µM],"IC50 [1, 10] [µM]",IC50 (SW620 cells (KRAS G12V); [11]) [µM],"IC50 [2, 12] [µM]","IC50 (GP2d cells (KRAS G12D); GP2d, class symbols) [µM]","IC50 [3, 13] [µM]","IC50 [4, 14] [µM]",IC50 ([1]; KRAS WT-GppNHp/RAF1 RBD HTRF) [µM],IC50 ([2]; KRAS G12R-GppNHp/RAF1 RBD HTRF) [µM],IC50 ([3]; KRAS G12D-GppNHp/RAF1 RBD HTRF) [µM],IC50 ([4]; KRAS G12V-GppNHp/RAF1 RBD HTRF) [µM],SMILES,other results
> 1,> 1,–,–,–,–,–,–,–,–,–,–,CO[C@@H]1C[C@@H](COc2nc(N(C)[C@H]3CCN(C(C)=O)[C@H]3C)c3cc(C(F)(F)F)c(-c4ccc(F)c5sc(N)c(C#N)c45)c(F)c3n2)N(C)C1 [Compound 238],"IC50 [1, 5]: > 10 µM; IC50 [2, 7]: > 10 µM; IC50 [3, 8]: > 10 µM; IC50 [4, 9]: > 10 µM"
< 0.1,< 0.1,–,–,–,–,–,–,–,–,–,–,N#Cc1c(N)sc2c(F)ccc(-c3c(C(F)(F)F)cc4c(N5CCOC6CC65)nc(OC[C@@]56CCCN5C[C@H](F)C6)nc4c3F)c12 (stereo partly drawn) [Compound 148],"IC50 [1, 5]: 0.1 to 1 µM; IC50 [2, 7]: 0.1 to 1 µM; IC50 [3, 8]: 0.1 to 1 µM; IC50 [4, 9]: 0.1 to 1 µM"
–,–,< 0.1,< 0.1,< 0.1,< 0.1,< 0.1,< 0.1,–,–,–,–,"CCN(c1nc(OC[C@@]23CCCN2C[C@H](F)C3)nc2c(F)c(-c3ccc(F)c4sc(N)c(C#N)c34)c(C(F)(F)F)cc12)[C@H]1CCN(C(=O)N2CC(C#N)C2)C1 (atropisomer, axis not shown) [Compound 778]",–
–,–,0.1 to 1,< 0.1,0.1 to 1,< 0.1,0.1 to 1,0.1 to 1,–,–,–,–,"CCN(c1nc(OC[C@@]23CCCN2C[C@H](F)C3)nc2c(F)c(-c3ccc(F)c4sc(N)c(C#N)c34)c(C(F)(F)F)cc12)[C@@H]1C[C@H](C)N(C(=O)C2COC2)C1 (atropisomer, axis not shown) [Compound 630]",–
< 0.1,< 0.1,–,–,–,–,–,–,< 0.1,< 0.1,< 0.1,0.1 to 1,"CCN(c1nc(OC[C@@]23CCCN2C[C@H](F)C3)nc2c(F)c(-c3ccc(F)c4sc(N)c(C#N)c34)c(C(F)(F)F)cc12)[C@H]1CCN(C(=O)C2CC(F)(F)C2)C1 (atropisomer, axis not shown) [Compound 550]",–
–,–,–,–,–,–,–,–,–,–,–,–,"CC(=O)N1CC[C@H](N(C)c2nc(OC[C@@]34CCCN3C[C@H](F)C4)nc3c(F)c(-c4ccc(F)c5sc(N)c(C#N)c45)c(C(F)(F)F)cc23)[C@@H]1C (single isomer, unassigned) [Compound 195]","IC50 [1, 5]: 1 to 10 µM; IC50 (SW620 cells (KRAS G12V); SW620 (KRAS G12V) cells): 0.1 to 1 µM; IC50 [2, 7]: 1 to 10 µM; IC50 (GP2d cells (KRAS G12D)): 0.1 to 1 µM; IC50 [3, 8]: 1 to 10 µM; IC50 [4, 9]: 1 to 10 µM"
–,–,< 0.1,< 0.1,< 0.1,< 0.1,< 0.1,< 0.1,–,–,–,–,"CCN(c1nc(OC[C@@]23CCCN2C[C@H](F)C3)nc2c(F)c(-c3ccc(F)c4sc(N)c(C#N)c34)c(C(F)(F)F)cc12)[C@H]1CCN(C(=O)C2CCN(C(C)=O)CC2)C1 (atropisomer, axis not shown) [Compound 575]",–
–,–,< 0.1,< 0.1,< 0.1,< 0.1,< 0.1,< 0.1,–,–,–,–,"CCN(c1nc(OC[C@@]23CCCN2C[C@H](F)C3)nc2c(F)c(-c3ccc(F)c4sc(N)c(C#N)c34)c(C(F)(F)F)cc12)[C@H]1CCN(C(=O)[C@H](C)OC)C1 (atropisomer, axis not shown) [Compound 571]",–
< 0.1,< 0.1,–,–,–,–,–,–,0.1 to 1,0.1 to 1,0.1 to 1,1 to 10,N#Cc1c(N)sc2c(F)ccc(-c3c(C(F)(F)F)cc4c(N5CC6COC[C@H]6C5)nc(OC[C@@]56CCCN5C[C@H](F)C6)nc4c3F)c12 (stereo partly drawn) [Compound 293],–
–,–,< 0.1,< 0.1,< 0.1,< 0.1,< 0.1,< 0.1,–,–,–,–,"CCN(c1nc(OC[C@@]23CCCN2C[C@H](F)C3)nc2c(F)c(-c3ccc(F)c4sc(N)c(C#N)c34)c(C(F)(F)F)cc12)[C@H]1CCN(C(=O)OC2COC2)[C@@H]1C (atropisomer, axis not shown) [Compound 809]",–
–,–,< 0.1,< 0.1,< 0.1,< 0.1,< 0.1,< 0.1,–,–,–,–,"CCN(c1nc(OC[C@@]23CCCN2C[C@H](F)C3)nc2c(F)c(-c3ccc(F)c4sc(N)c(C#N)c34)c(C(F)(F)F)cc12)[C@H]1CCN(C(=O)c2cc(C)no2)C1 (atropisomer, axis not shown) [Compound 771]",–
< 0.1,< 0.1,–,–,–,–,–,–,0.1 to 1,0.1 to 1,0.1 to 1,0.1 to 1,CCN(c1nc(OC[C@@]23CCCN2C[C@H](F)C3)nc2c(F)c(-c3ccc(F)c4sc(N)c(C#N)c34)c(C(F)(F)F)cc12)[C@@H]1CCN(C(=O)C2CC2)[C@@H]1C [Compound 406],–
< 0.1,< 0.1,–,–,–,–,–,–,0.1 to 1,0.1 to 1,0.1 to 1,0.1 to 1,COC[C@H]1CN(c2nc(OC[C@@]34CCCN3C[C@H](F)C4)nc3c(F)c(-c4ccc(F)c5sc(N)c(C#N)c45)c(C(F)(F)F)cc23)CCO1 [Compound 283],–
0.1 to 1,0.1 to 1,–,–,–,–,–,–,–,–,–,–,N#Cc1c(N)sc2c(F)ccc(-c3c(C(F)(F)F)cc4c(N5CC6(CC6)C5)nc(OC[C@@]56CCCN5C[C@H](F)C6)nc4c3F)c12 [Compound 204],"IC50 [1, 5]: 1 to 10 µM; IC50 [2, 7]: 1 to 10 µM; IC50 [3, 8]: 1 to 10 µM; IC50 [4, 9]: 1 to 10 µM"
0.1 to 1,0.1 to 1,–,–,–,–,–,–,–,–,–,–,N#Cc1c(N)sc2c(F)ccc(-c3c(C(F)(F)F)cc4c(N5CCCC6(C5)NC(=O)NC6=O)nc(OC[C@@]56CCCN5C[C@H](F)C6)nc4c3F)c12 (stereo partly drawn) [Compound 248],"IC50 [1, 5]: 0.1 to 1 µM; IC50 [2, 7]: 0.1 to 1 µM; IC50 [3, 8]: 0.1 to 1 µM; IC50 [4, 9]: 0.1 to 1 µM"
< 0.1,< 0.1,–,–,–,–,–,–,–,–,–,–,CN(C[C@@H](F)CO)c1nc(OC[C@@]23CCCN2C[C@H](F)C3)nc2c(F)c(-c3ccc(F)c4sc(N)c(C#N)c34)c(C(F)(F)F)cc12 [Compound 218],"IC50 [1, 5]: 0.1 to 1 µM; IC50 [2, 7]: 0.1 to 1 µM; IC50 [3, 8]: 0.1 to 1 µM; IC50 [4, 9]: 0.1 to 1 µM"
–,–,–,–,–,–,–,–,> 10,> 10,> 10,> 10,"C[C@@H]1[C@H](N(C)c2nc(OC[C@@]34CCCN3C[C@H](F)C4)nc3c(F)c(-c4ccc(F)c5sc(N)c(C#N)c45)c(C(F)(F)F)cc23)CCN1C(=O)C1CC1 (atropisomer, axis not shown) [Compound 334]",IC50 (SW620 cells (KRAS G12V); SW620 (KRAS G12V) cells): 0.1 to 1 µM; IC50 (GP2d cells (KRAS G12D)): 0.1 to 1 µM
0.1 to 1,0.1 to 1,–,–,–,–,–,–,1 to 10,1 to 10,1 to 10,1 to 10,C[C@@H]1[C@H](N(C)c2nc(OC[C@@]34CCCN3C[C@H](F)C4)nc3c(F)c(-c4ccc(F)c5sc(N)c(C#N)c45)c(Cl)cc23)CCN1C(=O)C1(F)CC1 [Compound 422],–
–,–,< 0.1,< 0.1,< 0.1,< 0.1,< 0.1,< 0.1,–,–,–,–,"CCN(c1nc(OC[C@@]23CCCN2C[C@H](F)C3)nc2c(F)c(-c3ccc(F)c4sc(N)c(C#N)c34)c(C(F)(F)F)cc12)[C@H]1C[C@H]2CN(C3CC3)C(=O)N2C1 (atropisomer, axis not shown) [Compound 775]",–
–,–,0.1 to 1,< 0.1,0.1 to 1,< 0.1,0.1 to 1,0.1 to 1,–,–,–,–,"CN(Cc1cccnc1)c1nc(OC[C@@]23CCCN2C[C@H](F)C3)nc2c(F)c(-c3ccc(F)c4sc(N)c(C#N)c34)c(C(F)(F)F)cc12 (atropisomer, axis not shown) [Compound 698]",–
–,–,0.1 to 1,< 0.1,0.1 to 1,< 0.1,0.1 to 1,0.1 to 1,–,–,–,–,C=C(F)C(=O)N1CC[C@@H](N(C)c2nc(OC[C@@]34CCCN3C[C@H](F)C4)nc3c(F)c(-c4ccc(F)c5sc(N)c(C#N)c45)c(C(F)(F)F)cc23)[C@H]1C [Compound 669],–
< 0.1,< 0.1,–,–,–,–,–,–,< 0.1,< 0.1,< 0.1,< 0.1,"CCN(c1nc(OC[C@@]23CCCN2C[C@H](F)C3)nc2c(F)c(-c3ccc(F)c4sc(N)c(C#N)c34)c(C(F)(F)F)cc12)[C@H]1CCN(C(=O)C(F)F)C1 (atropisomer, axis not shown) [Compound 547]",–

# — patent publication US20260042764A1, “COMPOSITIONS AND METHODS FOR INHIBITION OF KRAS” (TheRas, Inc., priority 2022, published 2026)
